Experimental findings from ChEMBL document CHEMBL5143648, “Exploration of inhibitors of the bacterial LexA repressor-protease” (Bioorg Med Chem Lett, 2022) are described below.

pIC50: −log10 of the molar value. Where only a bound is given, the exact number is not on record here.

A short description of this assay: Inhibition of N-terminal tetra-cysteine tagged LexA repressor (unknown origin) assessed as reduction in RecA-mediated autoproteolysis by measuring release of fluorophore-labeled peptide using FlAsH-EDT2 as fluorescent substrate by FlAsH-LexA assay. Further details: species or system Bacteria.

On to `Cc1ccc(NC(=O)Cn2nnc(C(=O)Nc3ccccc3)c2N)cc1`, for which the pIC50 (in general, −log10 of the IC50, conventionally taken in molar units) was 3.97.
For the molecule `Nc1c(C(=O)Nc2ccccc2)nnn1CC(=O)Nc1ccc(Cl)cc1`, the pIC50 was below 3.60.
For the molecule `Nc1ccc(NC(=O)Cn2nnc(C(=O)Nc3ccccc3)c2N)cc1`, the pIC50 is below 3.60.
With `Nc1c(C(=O)Nc2ccccc2)nnn1CC(=O)NC1CCCCCC1`, the pIC50 is below 3.60.
`CCOc1ccc(NC(=O)Cn2nnc(C(=O)Nc3ccccc3)c2N)cc1`: the pIC50 is 4.32.
Regarding `Cc1ccc(/N=C2\NC(=O)C(N)=C2C(=O)Nc2ccccc2)cc1`, the pIC50 is below 3.60.
For `COC(=O)c1ccc(NC(=O)Cn2nnc(C(=O)Nc3ccccc3)c2N)cc1`, the pIC50 was 4.12.
Take `Nc1c(C(=O)Nc2ccccc2)nnn1CC(=O)Nc1c(Cl)cc(Cl)cc1Cl`: the pIC50 is below 3.60.
For `Nc1c(C(=O)Nc2ccccc2)nnn1CC(=O)Nc1ccc(O)cc1`, the pIC50 was below 3.60.
On to `Nc1c(C(=O)Nc2ccccc2)nnn1CC(=O)Nc1ccc(C(=O)C(F)(F)F)cc1`, for which the pIC50 is below 3.60.
Regarding `Cc1ccc(NC(=O)Cn2nnc(C(=O)Nc3ccccc3)c2N)c(C)c1`, the pIC50 is below 3.60.
Next, `Cc1ccccc1NC(=O)Cn1nnc(C(=O)Nc2ccccc2)c1N`: below 3.60.
